Laboratory results: patent US20190038587A1, “DNA Methylation Landscapes of Post-Traumatic Stress Disorder (PTSD) Susceptibility and Resilience and Novel Therapeutics of PTSD Derived Thereof” (priority 2016, published 2019)

Legend:
long term potentiation = conditions: literature; cited from earlier work
[1] = system: susceptible rats (PTSD-like); assay: Rat PTSD model (predator scent, incubation of fear): freezing behavior in open field after third reminder; format: in vivo, Sprague-Dawley rats
Procedure: Adult male Sprague-Dawley rats (250-270 gr; Harlan, Rehovot, Israel) were used and housed under conditions of constant temperature (22° C.) and 50% humidity, with a 12-h light-12-h dark cycle. The rats were allowed to habituate to the animal house for 7 days (acclimation). They were housed three per cage, two experimental rats together with a third companion rat. The same three rats remained together until the end of the study. Food and water were provided ad libitum. All experiments were performed between 08:00 and 14:00 in daylight. All animal procedures were approved by the Bar-Ilan University Animal Care Committee and were carried out in accordance with the NIH Guide for the Care and Use of Laboratory Animals.
The model used in this research is based on Kesner et al., 2009^32. This model consists of several stages encompassing […], detailed below and depicted in FIG. 1. The animals are analyzed according to three clinically-relevant clusters of symptoms: manifestation of freezing behavior when (a) situated alone in an open field paradigm (re-experiencing), (b) situated with a habituated companion (social interaction) and (c) after exposure to a hyperarousal event^33. The range of each measured behavioral procedure was determined for all animals after the base-line (week 3). The data collected at baseline was analyzed and the explore procedure was applied using SPSS 11 to define the range of the population. The upper and lower levels of this range were treated as ‘normal baseline’ and alterations from this range were used to define PTSD-like behavior (susceptible).
Each experimental or naive rat was habituated for 7 days to their home cage (the first week of the habituation). For the first stage of the experiment each experimental or naive rat was habituated for 7 days to an open field apparatus together with a companion rat from their home cage, 5 min per day for 7 days (the second week of the experiment). The open field apparatus was a 90×90×30 cm Plexiglas box, which was placed under a camera. The video and computer equipment were situated in a separate room where all video and observation analyses were performed.
After 14 days (Day 1) of habituation, baseline freezing levels of experimental and naive rats were measured prior to stress exposure. Behavioral parameters and measurements are described below (Behavioral Measurements section).
One week later (Day 7), experimental rats were exposed to stress, i.e. predator scent. Individual rats were placed for 30 min in a clean plastic cylinder (diameter: 30 cm, height: 33 cm) containing 125 ml of well-soiled cat litter, used by a cat during the 24 h prior to the experiment. After exposure to stress, each rat was transferred to the open field, and three behavioral parameters were measured (as described in the Behavioral Measurements section below). The cylinder was cleaned between testing of each rat. Temperature and humidity conditions in the stress exposure area were identical to those in the housing cages and open field. The companion rats were not exposed to stress, and were housed in separate cages in a separate housing area during all experiments. The same cat was used for the litter introduced during initial exposure.
One week later (Day 14), rats were re-exposed for 30 minutes to litter with the same texture, but without the cat scent. Behavioral parameters were subsequently tested (as described below).
Three weeks later (Day 35), rats were again exposed for 30 min to litter with the same texture and without cat scent. Behavioral parameters were subsequently tested (as described below). Behavioral data for this testing stage were analyzed according to the division criteria detailed below. Based on the obtained results, experimental rats were defined as either susceptible or resilient.
After exposure to cat litter, each rat was placed in the open field for measurement of PTSD-like behavior. […]

[2] = system: DNA methylation profile in the NAc; assay: Capture bisulfite sequencing and DNA methylation mapping of nucleus accumbens after SAM treatment; format: in vivo, Sprague-Dawley rats
Procedure: (§1) Brains were removed immediately after exposure to litter with cat scent immediately after Re3. Each brain was placed in a Perspex brain matrix and sliced into 1.0 mm segments. The NAc was punched out using a micro dissecting needle of 13-14 G. Brain tissue was frozen at −70° C. until DNA and RNA extraction.
Genomic DNA was extracted using All Prep DNA/RNA Micro Kit, Qiagen (Hilden, Germany)
The SeqCap Epi Enrichment System was used for target bisulfite sequencing of promoters and enhancers in the rat genome. The rat (rn4) target probes were custom designed by utilizing H3K4me1 and H3K4me3 (indicating enhancers and promoters respectively) signals from mouse samples as there is no currently available ChIP data of H3K4me1 and H3K4me3 with respect to the rat species. PuttivH3K4me1 and me3 were selected by mapping and aligning genomic fragments from mouse to the rat and retaining any fragments that share a high similarity and the subsequent associated signals. A total of 53374 target probes have been designed spanning 48072248 base pairs of sequence with a mean probe size of 900 bp. Biotinylated target probes were designed for both strands of bisulfite converted genomic DNA. Bisulfite treated genomic DNA is ligated to methylated NGS adaptors, hybridized to the biotinylated oligonucleotide probes which is followed by a series of washes of off-target DNA sequences and unbound DNA. The resulting isolated specific DNA then undergoes PCR amplification for downstream sequencing on Illumina Hiseq 2000 sequencer. Capture and hybridization is performed as a service for fee by ICRM in Montreal licensed by Roche/Nimblegen. The following bioinformatics workflow is used in the lab. Quality control is done using FastQC to assess sequencing scores and other quality metrics. If necessary, trimming of raw file is performed using Trimmomatic to remove low scoring sequencing results and/or adapter contents. Sequences are aligned to rn4 rat reference genome using Bsmap v2.89. A typical alignment rate of 90%-95% is achieved (30× coverage). The resulting sequencing alignment file (SAM) is converted to binary alignment format (BAM) for downstream analysis and filtering. BAM files are split, merged, and sorted by strand for additional downstream filtering and analysis. Duplicate reads within the BAM files are removed via Picard Tools (v1.93, BROAD institute) strand-specifically and the separate BAM files are merged back together and examined by Bamtools to assess whether the sequences are properly mapped to genome, whether both paired end reads exist (for paired end sequencing), and whether paired end reads are properly paired to each other (for paired end sequencing). Using the final BAM file, methylation ratios and coverage is recovered by provided scripts within Bsmap as well as methylation context. Annotation of genomic locations is performed by HOMER. Computation of differential methylation sites and tiled windows of differentially methylated regions was performed using a logistic regression method with the Methylkit R package in Bioconductor1. FDR adjusted P value significance threshold is held at <0.2.
NAcs were isolated from the animals (n=4-7 per group) following the third reminder and DNA and RNA were extracted as described in the methods. DNA was bisulfite converted, enriched using capture arrays for all predicted promoters and enhancers in the rat genome and was then subjected to next generation sequencing. […]

RORA mRNA = RORA mRNA expression in nucleus accumbens following the third reminder; format: in vivo, Sprague-Dawley rats; conditions: NAc following Re3; SAM vs saline; FIG. 6C
Procedure: as §1
The retinoic biosynthesis and degradation pathway was also enriched with differentially methylated genes. In the susceptible group there was an enrichment in downstream targets of the RAR-Related Orphan Receptor A (RORA), however the impact on level of activity of this pathway could not be derived from this analysis (FIG. 6B). Therefore, the levels of RORA mRNA expression in the different groups was first determined. RORA mRNA expression levels were higher in either control or resilient animals treated with either saline or SAM than in susceptible animals (*p<0.05, *p<0.05 and **p<0.01 respectively) (FIG. 6C), consistent with the possibility that this gene is involved in the pathology of PTSD. […] Therefore, it was hypothesized that the RORA pathway is involved in the hyperarousal behavior which is resistant to SAM's treatment and characteristic of the susceptible PTSD group. The correlation between the mRNA expression of RORA and the three behavioral tests was first measured; as hypothesized, only the hyperarousal behavior was correlated with the mRNA expression of RORA (FIG. 6D). […]

[3] = system: Beta estradiol downstream pathway; assay: Pathway analysis of upstream regulators of differentially methylated genes; parameters: species or system Sprague-Dawley rats; conditions: susceptible animals treated with SAM relative to susceptible treated with saline; FIG. 6B
Source text: If DNA methylation plays a causal role in PTSD, comparative analysis of upstream regulators of genes whose DNA methylation is different in control, susceptible, resilient and SAM treated animals could reveal important putative new pathways and networks involved in PTSD molecular pathology that are candidates for therapeutic intervention (FIG. 6A). […] Other up-regulators of differentially methylated genes are presented in the Heatmap. These pathways are relevant to anxiety and memory pathways such as: sex hormones, glucocorticoid and different cytokines.
In reference to FIG. 6, “A” is coloring representing the p value of each group for the different “upstream-regulator” regulated pathways. Light blue represents low activation and dark blue represents high activation of the pathway. Grey represents pathways that didn't change. Yellow lines and boxes represent sex hormone dependent pathways, blue lines and boxes represent cytokine regulated pathways, pink lines and boxes represent glucocorticoids regulated pathways and green lines and boxes represent retinoic acid (vitamin A) regulated pathways. “B” is circular heat maps representing the different pathways that are influenced by a specific “upstream-upregulator” and are altered in PTSD susceptible and resistant animals. […]

[4] = susceptible-SAM vs susceptible-saline rats, threshold >10, Q value 0.2, FIG. 4A

## Nc1ncn([C@H]2C[C@H](O)[C@@H](CO)O2)c(=O)n1 [5-aza-2-deoxycytidine]
Long term potentiation
  effect on long term potentiation: inhibited long term potentiation

## C[S+](CC[C@H](N)C(=O)O)C[C@H]1O[C@@H](n2cnc3c(N)ncnc32)[C@H](O)[C@@H]1O (stereo partly drawn) [SAM, S-adenosylmethionine]
[1]; Embodiment 2, susceptible rats, SAM 25 mg/kg i.p. 24 h and 1 h before Re-3, vs susceptible-saline, FIG. 3A
  freezing behavior during the 'exploration' test: significantly decreased
[1]; Embodiment 2, susceptible rats, SAM 25 mg/kg i.p. 24 h and 1 h before Re-3, vs susceptible-saline, FIG. 3B
  freezing behavior during the 'social interaction' test: significantly decreased
[1]; Embodiment 2, susceptible rats, SAM 25 mg/kg i.p. 24 h and 1 h before Re-3, vs susceptible-saline, FIG. 3C
  freezing behavior during the 'hyperarousal' test: no difference in freezing behavior
[1]; Embodiment 4, susceptible rats, SAM 25 mg/kg and/or retinoic acid 2 mg/kg i.p. 24 h and 1 h before Re-3, vs susceptible-RA and susceptible-saline, FIG. 7A
  freezing behavior during the 'exploration' test: significantly decreased
[1]; Embodiment 4, susceptible rats, SAM 25 mg/kg and/or retinoic acid 2 mg/kg i.p. 24 h and 1 h before Re-3, vs susceptible-RA and susceptible-saline, FIG. 7B
  freezing behavior during the 'social interaction' test: significantly decreased
[1]; susceptible-treated rats, FIG. 3D-G
  fold change in freezing behavior in 'exploration' and 'social interaction' tests (from Re-2 to Re-3): effective in reducing these behaviors
[1]; susceptible-treated rats, FIG. 3H-I
  fold change in freezing behavior in the 'hyperarousal' test (from Re-2 to Re-3): ineffective in changing freezing behavior
[2]; FIG. 4A-B
  CGs sites differentially methylated in the susceptible animals and reversed by the SAM treatment: 140 CGs sites
[2]; FIG. 4C-D
  CG sites differentially methylated in both the susceptible and the resilient rats affected by SAM: 38 CG sites
[2]; sites altered in susceptible rats relative to controls
  fraction of total susceptible sites reversed by SAM treatment: 30%
[2]; [4]
  CGs sites that were de-methylated: 599 CGs sites
  CGs sites that were hyper-methylated: 363 CGs sites
RORA mRNA
  level of expression of RORA (mRNA): no effect
[3]
  state of activity of Beta estradiol downstream pathway: inhibited
